Results: article PMC3493696 (Life sciences, 2012)
Where two headings read alike, the source gives them in different places.

Key:
[1] = Plasma pharmacokinetics in mice after i.v. or p.o. AM-1241*HCl; assay type: in vivo, mouse
[2] = Tissue distribution of AM-1241 in mice after i.v. or p.o. administration; assay type: in vivo, mouse; conditions: 25 mg/kg; for time by which concentration became undetectable: i.v.
plasma proteins = experiment: Plasma-protein binding in undiluted mouse plasma; assay type: in vitro ADME; conditions: up to 50 µM, 30 minute incubation at 37°C, triplicate
human serum albumin = human serum albumin (Homo sapiens, UniProt P02768); experiment: Binding to aqueous human serum albumin; assay type: in vitro ADME; conditions: 50 µM
Sequence of human serum albumin (P02768 25-609): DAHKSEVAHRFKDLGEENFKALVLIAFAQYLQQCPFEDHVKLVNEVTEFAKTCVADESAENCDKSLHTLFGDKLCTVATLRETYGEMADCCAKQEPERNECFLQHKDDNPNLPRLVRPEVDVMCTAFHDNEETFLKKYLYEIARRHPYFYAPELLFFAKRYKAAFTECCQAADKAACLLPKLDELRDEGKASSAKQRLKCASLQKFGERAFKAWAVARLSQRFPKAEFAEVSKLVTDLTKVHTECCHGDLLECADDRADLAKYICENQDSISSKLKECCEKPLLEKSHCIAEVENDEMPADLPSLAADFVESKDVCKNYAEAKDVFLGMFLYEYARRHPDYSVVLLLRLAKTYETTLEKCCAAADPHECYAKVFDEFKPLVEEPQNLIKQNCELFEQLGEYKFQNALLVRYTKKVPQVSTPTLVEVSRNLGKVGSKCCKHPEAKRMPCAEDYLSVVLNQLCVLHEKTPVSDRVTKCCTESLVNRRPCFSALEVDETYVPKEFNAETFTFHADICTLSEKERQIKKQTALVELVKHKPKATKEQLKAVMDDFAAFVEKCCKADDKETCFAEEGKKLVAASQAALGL

[3] = Stability in mouse plasma at 37°C; assay type: in vitro ADME; conditions: at least 6 hours, 20 µM
[4] = Solution stability in acetonitrile at 37°C; assay type: physicochemical; conditions: at least 24 hours, 20 µM
[5] = Thermal stability of aqueous AM-1241*HCl solutions; assay type: physicochemical; conditions: 0.003, 0.03, 0.3 and 1 mg/mL, up to 14 days
[6] = Microsomal metabolism and LC-MS/MS metabolite analysis, rat liver microsomes; assay type: in vitro ADME; conditions: 100 µM, 30 minutes, 37°C, NADPH
[7] = Microsomal metabolism and LC-MS/MS metabolite analysis, human liver microsomes; assay type: in vitro ADME; conditions: 100 µM, 30 minutes, 37°C, NADPH
mice = experiment: Responses of mice to AM-1241 administration; assay type: in vivo, mouse
CB2 vs. CB1 = conditions: ref Beltramo 2009; Bingham et al. 2007; Mancini et al. 2009; Nackley et al. 2003; Quartilho et al. 2003; Yao et al. 2006; cited from earlier work
CB2 [8] = molecular target: T1, CB2 (Homo sapiens, UniProt P34972); conditions: ref Beltramo 2009; Bingham et al. 2007; Mancini et al. 2009; Nackley et al. 2003; Quartilho et al. 2003; Yao et al. 2006; cited from earlier work
T1 sequence (P34972 whole entry, species assumed): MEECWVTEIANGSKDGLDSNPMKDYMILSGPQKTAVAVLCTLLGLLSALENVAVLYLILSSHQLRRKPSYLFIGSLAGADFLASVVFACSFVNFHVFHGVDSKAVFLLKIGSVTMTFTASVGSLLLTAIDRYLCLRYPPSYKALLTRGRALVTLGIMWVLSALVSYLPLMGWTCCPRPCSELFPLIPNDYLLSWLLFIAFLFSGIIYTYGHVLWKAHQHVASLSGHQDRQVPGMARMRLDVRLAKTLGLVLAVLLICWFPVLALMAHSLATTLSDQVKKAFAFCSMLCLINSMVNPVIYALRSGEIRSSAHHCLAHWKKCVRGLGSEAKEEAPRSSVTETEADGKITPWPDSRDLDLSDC

[9] = local (intraplantar) administration; ref Malan et al. 2001; cited from earlier work
[10] = i.p., murine model; ref Storr et al. 2009; cited from earlier work
[11] = ref Beltramo 2009, cited from earlier work
[12] = 1.0 mg/kg i.v.; ref Dhawan et al. 2006; Petitet et al. 1999; cited from earlier work
[13] = rodents, doses of 0.1–100 mg/kg; ref Valenzano et al. 2005; cited from earlier work
[14] = ref Giblin et al. 2007; cited from earlier work
CB2 [15] = molecular target: T1, CB2; experiment: Preliminary experiments: CB2 agonist potency of metabolite; conditions: data not shown

## CN1CCCCC1Cn1cc(C(=O)c2cc([N+](=O)[O-])ccc2I)c2ccccc21 (racemic) [AM-1241, (R,S)-(2-iodo-5-nitrophenyl)-[1-((1-methyl-piperidin-2-yl)methyl-1H-indol-3-yl]-methanone]
[1]; 25 mg/kg
  half-life after p.o. relative to i.v. administration: over 2 fold
[1]; 25 mg/kg i.v.
  plasma half-life: 0.617 h
[1]; 25 mg/kg p.o.
  half-life after p.o. administration: 1.37 h
[1]; 25 mg/kg, plasma AUC ratio p.o./i.v.
  oral bioavailability: ~ 21%
[2]; brain
  time by which concentration became undetectable: ≤ 120 min
[2]; intestine
  time by which concentration became undetectable: ≤ 240 min
[2]; kidney
  time by which concentration became undetectable: ≤ 240 min
[2]; liver
  time by which concentration became undetectable: ≤ 90 min
[2]; p.o.
  detection in brain or liver: not in brain or liver
[2]; plasma
  time by which concentration became undetectable: ≤ 240 min
[2]; spleen
  time by which concentration became undetectable: ≤ 240 min
Plasma proteins
  bound to plasma protein: 99%
Human serum albumin; 0.4% (w/v) aqueous human serum albumin
  bound to albumin: 56%
Human serum albumin; 1.0% (w/v) aqueous human serum albumin
  bound to albumin: 85%
[3]
  recovery after incubation (stability): > 95%
[4]
  recovery after incubation (stability): > 95%
[5]; 4°C
  stability of aqueous samples: stable
[5]; room temperature
  stability of aqueous samples: stable
[6]
  site of phase I microsomal metabolism (demethylation and hydroxylation products): primarily on the piperadine moiety
[7]
  metabolites formed compared with rat liver microsomes: the same metabolites
mice; 25 mg/kg orally or i.v., necropsies unremarkable
  toxicity: not toxic
mice; 25 mg/kg p.o.
  transient gaping response (animals affected): Two out of 29 mice
mice; any AM-1241 treatment (25 mg/kg i.v. or p.o.)
  gross organ or tissue abnormalities at end-point necropsy: No gross organ or tissue abnormalities
CB2 vs. CB1
  selectivity for CB2 vs. CB1: up to 340 fold
CB2 [8]
  CB2 affinity: low nanomolar
[9]
  dose at which maximal analgesic efficacy was reached: 3.3 mg/kg
[10]
  daily dose required to reduce experimental colitis: 20 to 40 mg/kg
[11]; i.v., Beltramo et al. 2006, Ohta et al. 2008
  doses reported efficacious in various preclinical pain models: up to 6 mg/kg

## CN1CCCCC1Cn1cc(C(=O)c2cc([N+](=O)[O-])ccc2I)c2ccccc21.Cl (stereo not shown) [AM-1241*HCl]
mice; 25 mg/kg i.v.
  behavior after administration: initially somewhat hypoactive, but behaved normally by 90 minutes post-dose
mice; 25 mg/kg p.o.
  behavior after administration: remained alert and apparently unaffected
  transient gaping response (animals affected): two of the twenty-nine animals

## CN1CCCCC1Cn1cc(C(=O)c2ccccc2I)c2ccccc21 (stereo not shown) [AM-2233]
[12]
  catalepsy: profound catalepsy

## COc1ccc2c(c1)c(CCN1CCOCC1)c(C)n2C(=O)c1cccc(Cl)c1Cl [GW405833, reference compound]
[13]
  oral bioavailability: 0%
[11]; i.p.
  dose of maximal effective antihyperalgesic and analgesic activities: 1 to 3 mg/kg

## O=C(NCC1CCOCC1)c1cnc(Nc2ccc(Cl)cc2Cl)nc1C(F)(F)F [GW842166X]
[14]
  half-life after p.o. administration: 3 to 5 h

## Cc1c(C(=O)c2cccc3ccccc23)c2cccc3c2n1[C@H](CN1CCOCC1)CO3 [WIN 55,212-2]
[12]
  catalepsy: profound catalepsy

## O=C(c1cc([N+](=O)[O-])ccc1I)c1cn(CC2CCCCN2)c2ccccc12 (stereo not shown) [demethylated metabolite of AM-1241]
CB2 [15]
  CB2 agonist potency compared to the parent compound: somewhat less potent
